Test results published in ChEMBL document CHEMBL1149504, “Design and synthesis of substituted quinolines as novel and selective melanin concentrating hormone antagonists as anti-obesity agents” (Bioorg Med Chem Lett, 2006).

Columns and labels:
[1] = target: Melanin-concentrating hormone receptor 1 (Homo sapiens, UniProt Q99705); test: Binding affinity to MCHR1 by radioligand binding assay
[2] = target: T1, 5-hydroxytryptamine receptor 2C (Homo sapiens, UniProt P28335); test: Displacement of [3H]mesulergine from 5HT2C receptor
T1 sequence (P28335 whole entry): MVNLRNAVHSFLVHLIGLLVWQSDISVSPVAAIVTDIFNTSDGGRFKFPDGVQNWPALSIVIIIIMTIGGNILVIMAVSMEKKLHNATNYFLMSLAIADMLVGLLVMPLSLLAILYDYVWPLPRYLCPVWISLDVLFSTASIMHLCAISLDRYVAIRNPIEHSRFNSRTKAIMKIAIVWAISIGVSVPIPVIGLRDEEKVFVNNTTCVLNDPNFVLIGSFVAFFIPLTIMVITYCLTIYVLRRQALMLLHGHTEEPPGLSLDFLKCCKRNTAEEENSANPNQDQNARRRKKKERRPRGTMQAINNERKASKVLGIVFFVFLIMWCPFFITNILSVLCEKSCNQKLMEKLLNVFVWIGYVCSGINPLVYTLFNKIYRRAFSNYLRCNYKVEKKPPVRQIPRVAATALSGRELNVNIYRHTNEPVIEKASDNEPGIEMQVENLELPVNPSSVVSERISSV

Sequence of Melanin-concentrating hormone receptor 1 (Q99705 whole entry): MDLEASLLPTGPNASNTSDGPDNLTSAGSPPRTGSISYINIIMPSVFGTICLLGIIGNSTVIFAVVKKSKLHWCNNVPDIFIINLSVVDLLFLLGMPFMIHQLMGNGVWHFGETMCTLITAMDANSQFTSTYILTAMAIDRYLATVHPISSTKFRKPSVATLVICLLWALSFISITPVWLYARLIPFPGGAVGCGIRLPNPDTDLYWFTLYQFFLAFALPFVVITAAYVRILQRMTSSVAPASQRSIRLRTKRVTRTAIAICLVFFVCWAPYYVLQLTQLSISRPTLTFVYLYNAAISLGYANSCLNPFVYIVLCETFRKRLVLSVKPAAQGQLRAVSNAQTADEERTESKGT

| SMILES | Ki [1] [nM] | IC50 [2] [nM] |
| --- | --- | --- |
| CN(C)Cc1cnc2c(Cn3cnc4cc(-c5ccc(Cl)cc5)sc4c3=O)cccc2c1 | 197 | 1310 |
| CS(=O)(=O)C1CCN(Cc2cnc3c(CNC(=O)c4ccc(-c5ccc(F)cc5)cc4)cccc3c2)CC1 | 310 | > 100000 |
| O=C(NCc1cccc2cc(CN3CCOCC3)cnc12)c1ccc(-c2ccc(F)cc2)nc1 | 20100 | > 100000 |
| CN(Cc1cccc2cc(CN3CCCCC3)cnc12)C(=O)c1ccc(-c2ccc(F)cc2)cc1 | 31 | 4190 |
| CN(CC(=O)N(C)C)Cc1cnc2c(Cn3cnc4cc(-c5ccc(Cl)cc5)sc4c3=O)cccc2c1 | 136 | > 100000 |
| O=c1c2sc(-c3ccc(Cl)cc3)cc2ncn1Cc1cccc2cc(CN3CCCC3)cnc12 | 91 | > 100000 |
| CS(=O)(=O)N1CCN(Cc2cnc3c(Cn4cnc5cc(-c6ccc(Cl)cc6)sc5c4=O)cccc3c2)CC1 | 773 | > 100000 |
| O=c1c2sc(-c3ccc(Cl)cc3)cc2ncn1Cc1cccc2cc(CN3CCC(O)CC3)cnc12 | 51 | > 100000 |
| CN1CCN(Cc2cnc3c(Cn4cnc5cc(-c6ccc(Cl)cc6)sc5c4=O)cccc3c2)CC1 | 110 | > 100000 |

Now from value to molecule:

| Ki [1] [nM] | IC50 [2] [nM] | SMILES |
| --- | --- | --- |
| 310 | 14100 | CCN(CC)Cc1cnc2c(CNC(=O)c3ccc(-c4ccc(F)cc4)nc3)cccc2c1 |
| 102 | 4160 | CCN(CC)Cc1cnc2c(CNC(=O)c3ccc(-c4ccc(F)cc4)cc3)cccc2c1 |
| 1410 | 7470 | O=C(NCc1cccc2cc(CN3CCOCC3)cnc12)c1ccc(-c2ccc(F)cc2)cc1 |
| 195 | 2810 | O=C(NCc1cccc2cc(CN3CCC(O)CC3)cnc12)c1ccc(-c2ccc(F)cc2)cc1 |
| 142 | 3590 | O=C(NCc1cccc2cc(CN3CC[C@H](O)C3)cnc12)c1ccc(-c2ccc(F)cc2)cc1 |
| 126 | 25200 | CCN(CC)Cc1cnc2c(Cn3cnc4cc(-c5ccc(Cl)cc5)sc4c3=O)cccc2c1 |
| 803 | 14600 | O=C(NCc1cccc2cc(CN3CCC(O)CC3)cnc12)c1ccc(-c2ccc(F)cc2)nc1 |
| 414 | 10300 | CN(C)Cc1cnc2c(CNC(=O)c3ccc(-c4ccc(F)cc4)nc3)cccc2c1 |
| 3540 | 20200 | CN1CCN(Cc2cnc3c(CNC(=O)c4ccc(-c5ccc(F)cc5)nc4)cccc3c2)CC1 |
| 1150 | 16500 | O=C(NCc1cccc2cc(CN3CC[C@H](O)C3)cnc12)c1ccc(-c2ccc(F)cc2)nc1 |
